The text below walks through data of patent US10865236B2, “Bispecific antigen-binding molecules that bind a staphylococcus target antigen and a complement component and uses thereof” (priority 2017, dated 2020).

The subject of this assay is S. aureus MW2. Description: Mouse MRSA bacteremia model: bispecific antibody alone or in combination with linezolid, kidney, lung and heart burden Day 4. The class given is in vivo, Humanized C1q (C1q^Hu/Hu) mice. As for the experimental part: The bacteremia model described above in Example 12 was used to evaluate the activity of an anti-IsdB× anti-C1q bispecific antibody against S. aureus MRSA strains in reducing bacterial burden when used in combination with a standard-of-care antibiotic.
Humanized C1q (C1q^Hu/Hu) mice were infected intraperitoneally with 1.3×10^8 colony forming units (CFUs) per mouse of S. aureus MW2 in a volume of 200 ul. S. aureus MW2 was grown to log phase, OD600≤1, in TSB at 37° C. and washed 3 times in PBS and adjusted to the desired density for infection. Starting at eighteen (18) hours following infection, 2 groups of mice (n=5) were treated with 80 mg/kg of linezolid by oral gavage (200 ul volume), twice daily on Days 1, 2 and 3. […] Mice were weighed daily until Day 4 post infection and change in weight was recorded. Mice were euthanized on Day 4 and kidneys, lungs and hearts were collected to determine organ burden. Briefly, the organs were homogenized in 5 mL PBS using gentleMACS Octo Dissociator (Miltenyi Biotec) using programme-E. The tissue homogenates were then diluted in PBS and multiple 10-fold serial dilutions were plated on LB agar plates and incubated at 37° C. overnight. The next day, individual colonies were counted to determine bacterial burden and results were reported as CFUs/gram tissue.

With `CC(=O)NC[C@H]1CN(c2ccc(N3CCOCC3)c(F)c2)C(=O)O1` [linezolid, reference compound], under “MW2”, the “log reduction in overall CFUs, lung” value amounted to 2 log. Further, the “log reduction in overall CFUs, kidneys” value (MW2, compared to infection control (8.5 logs)) is “less than 2 log”. Moreover, the “log CFU reduction, heart” value (MW2, limit of detection 10^3 CFU) was 3 log. Further, the CFUs/g heart (single agent (H1H20631D 100 ug/mouse, Antibiotic None; or Linezolid, no antibody), heart) was determined as 2.08E+05 CFUs/g. In addition, the CFUs/g kidney (single agent (H1H20631D 100 ug/mouse, Antibiotic None; or Linezolid, no antibody), kidney) worked out at 6.99E+06 CFUs/g. For the same compound, the CFUs/g lung (single agent (H1H20631D 100 ug/mouse, Antibiotic None; or Linezolid, no antibody), lung) is recorded as 6.98E+05 CFUs/g.
